Assay [1] addresses T1, ALK (Homo sapiens, UniProt Q9UM73).
T1 construct: host or cells: baculovirus expression system
The assay can be described thus: ALK Kinase Assay (ELISA/TRF, PLC-γ substrate). In kind it is biochemical. The settings on record: ALK Kinase Inhibition; read-out: ALK Potency. The essentials:
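Wells were coated with 10 μg/mL phospholipase C-γ substrate in TBS, and the reaction was started by adding 30 ng/ml ALK enzyme and run at 37° C for 15 minutes. Phosphorylated product was detected with Eu-N1-labeled PT66 antibody, and IC50 values came from sigmoidal variable-slope fits of percent inhibition against log concentration.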
On the technique in general: An ELISA detects its analyte on a solid surface through an enzyme-linked reagent.

Assay [2] concerns the target T2, JAK2 (Homo sapiens, UniProt O60674).
T2 construct: host or cells: baculovirus expression system
The assay can be described thus: Recombinant Human JAK2 Kinase Assay (TRF). In kind it is biochemical. The settings on record: JAK2 Kinase Inhibition; read-out: JAK2 Potency. The essentials:
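TRF read-out: Eu-N1 PY100 anti-phosphotyrosine antibody detects product. Enzyme is baculovirus-expressed JAK2 at 15 ng/ml; substrate is a biotinyl 15-mer peptide bound to Neutravidin-coated wells. Buffer 20 mM HEPES pH 7.2, 0.2 μM ATP, 1 mM MnCl2, 0.1% BSA, 2.5% DMSO final; 20 min, RT.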

T1 sequence (Q9UM73 19-1620): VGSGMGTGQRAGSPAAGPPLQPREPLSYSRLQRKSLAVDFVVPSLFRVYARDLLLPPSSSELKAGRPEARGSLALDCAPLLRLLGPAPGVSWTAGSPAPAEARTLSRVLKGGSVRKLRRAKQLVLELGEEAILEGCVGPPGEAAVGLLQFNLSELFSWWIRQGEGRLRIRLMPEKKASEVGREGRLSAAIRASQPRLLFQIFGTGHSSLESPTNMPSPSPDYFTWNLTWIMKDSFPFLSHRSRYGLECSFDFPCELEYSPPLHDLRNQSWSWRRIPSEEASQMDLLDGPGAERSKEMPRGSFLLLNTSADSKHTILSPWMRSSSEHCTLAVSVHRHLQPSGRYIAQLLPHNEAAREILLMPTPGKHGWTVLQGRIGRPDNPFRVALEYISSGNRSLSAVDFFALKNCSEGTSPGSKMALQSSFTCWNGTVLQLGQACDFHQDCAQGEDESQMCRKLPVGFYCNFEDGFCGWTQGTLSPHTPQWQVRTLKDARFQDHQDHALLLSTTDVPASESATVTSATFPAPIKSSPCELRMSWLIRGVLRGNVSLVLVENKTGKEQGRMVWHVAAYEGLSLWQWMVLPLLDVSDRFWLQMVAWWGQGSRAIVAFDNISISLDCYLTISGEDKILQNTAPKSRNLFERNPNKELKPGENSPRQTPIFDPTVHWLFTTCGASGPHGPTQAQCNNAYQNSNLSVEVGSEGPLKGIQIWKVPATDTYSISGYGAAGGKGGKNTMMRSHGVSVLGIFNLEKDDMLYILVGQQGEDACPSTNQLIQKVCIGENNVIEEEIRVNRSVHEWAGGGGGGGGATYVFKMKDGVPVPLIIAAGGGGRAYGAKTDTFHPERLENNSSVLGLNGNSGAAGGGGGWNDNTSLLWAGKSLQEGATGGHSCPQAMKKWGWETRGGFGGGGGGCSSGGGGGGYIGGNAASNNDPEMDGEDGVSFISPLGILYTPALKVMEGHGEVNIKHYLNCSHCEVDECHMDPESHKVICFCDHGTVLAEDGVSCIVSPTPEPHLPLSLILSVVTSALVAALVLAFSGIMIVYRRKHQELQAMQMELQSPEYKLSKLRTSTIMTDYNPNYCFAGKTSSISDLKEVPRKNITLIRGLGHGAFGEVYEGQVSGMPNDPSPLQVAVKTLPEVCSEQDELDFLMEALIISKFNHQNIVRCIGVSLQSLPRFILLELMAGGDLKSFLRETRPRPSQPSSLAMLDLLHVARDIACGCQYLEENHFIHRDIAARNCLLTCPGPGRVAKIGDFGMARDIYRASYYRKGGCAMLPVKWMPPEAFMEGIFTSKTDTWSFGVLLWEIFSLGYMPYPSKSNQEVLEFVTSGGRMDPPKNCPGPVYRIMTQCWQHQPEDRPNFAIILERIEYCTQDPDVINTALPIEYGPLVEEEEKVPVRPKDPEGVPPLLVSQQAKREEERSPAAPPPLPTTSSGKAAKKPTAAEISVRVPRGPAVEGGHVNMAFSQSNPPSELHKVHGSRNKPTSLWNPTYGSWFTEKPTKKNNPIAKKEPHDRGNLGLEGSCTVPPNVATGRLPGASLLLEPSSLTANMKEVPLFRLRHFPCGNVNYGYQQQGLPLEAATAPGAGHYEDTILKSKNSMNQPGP
T2 sequence (O60674 whole entry): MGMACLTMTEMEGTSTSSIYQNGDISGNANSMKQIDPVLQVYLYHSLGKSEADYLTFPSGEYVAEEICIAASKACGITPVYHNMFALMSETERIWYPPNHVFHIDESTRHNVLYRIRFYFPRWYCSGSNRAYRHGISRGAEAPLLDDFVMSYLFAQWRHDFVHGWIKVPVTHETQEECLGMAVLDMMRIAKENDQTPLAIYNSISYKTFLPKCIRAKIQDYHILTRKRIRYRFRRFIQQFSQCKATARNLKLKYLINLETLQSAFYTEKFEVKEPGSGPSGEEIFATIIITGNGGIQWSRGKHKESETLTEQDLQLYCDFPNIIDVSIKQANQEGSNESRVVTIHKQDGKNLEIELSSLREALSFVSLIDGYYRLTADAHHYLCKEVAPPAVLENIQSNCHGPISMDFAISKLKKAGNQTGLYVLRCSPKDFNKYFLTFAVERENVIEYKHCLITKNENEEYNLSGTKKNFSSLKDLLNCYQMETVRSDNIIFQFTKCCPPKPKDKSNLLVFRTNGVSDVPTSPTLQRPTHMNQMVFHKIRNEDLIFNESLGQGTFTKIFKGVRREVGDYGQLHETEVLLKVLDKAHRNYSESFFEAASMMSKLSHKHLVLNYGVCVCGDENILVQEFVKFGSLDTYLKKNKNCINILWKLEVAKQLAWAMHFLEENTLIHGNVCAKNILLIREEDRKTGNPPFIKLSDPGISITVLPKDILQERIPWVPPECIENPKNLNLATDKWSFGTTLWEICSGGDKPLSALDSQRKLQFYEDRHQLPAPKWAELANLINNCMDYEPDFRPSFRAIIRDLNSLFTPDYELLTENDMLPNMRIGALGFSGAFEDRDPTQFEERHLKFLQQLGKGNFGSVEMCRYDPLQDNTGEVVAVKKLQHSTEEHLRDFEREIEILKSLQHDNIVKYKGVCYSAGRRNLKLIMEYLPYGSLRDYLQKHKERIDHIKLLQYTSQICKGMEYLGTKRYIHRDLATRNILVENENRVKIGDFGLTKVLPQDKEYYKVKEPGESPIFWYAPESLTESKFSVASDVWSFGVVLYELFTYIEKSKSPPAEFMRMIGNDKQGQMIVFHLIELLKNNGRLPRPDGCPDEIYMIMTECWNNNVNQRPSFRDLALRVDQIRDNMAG

For `c1cncc(-c2ccc3cnc(Nc4cccc(N5CCOCC5)c4)nn23)c1` [Example 309, (3-Morpholin-4-yl-phenyl)-(7-pyridin-3-yl-pyrrolo[2,1-f][1,2,4]triazin-2-yl)-amine], the IC50 in assay [1] is 1000 to 10000 nM; in assay [2], less than 100 nM.

`COc1ccccc1-c1ccc2cnc(Nc3ccc(N4CCC(N5CCN(C)CC5)CC4)cc3)nn12` [Example 310, [7-(2-Methoxy-phenyl)-pyrrolo[2,1-f][1,2,4]triazin-2-yl]-{4-[4-(4-methyl-piperazin-1-yl)-piperidin-1-yl]-phenyl}-amine]: the IC50 in assay [1] and in assay [2] was less than 100 nM throughout.

With `COc1ccc(Cl)cc1-c1ccc2cnc(Nc3ccc(N4CCC(N5CCN(C)CC5)CC4)cc3)nn12` [Example 311, [7-(5-Chloro-2-methoxy-phenyl)-pyrrolo[2,1-f][1,2,4]triazin-2-yl]-{4-[4-(4-methyl-piperazin-1-yl)-piperidin-1-yl]-phenyl}-amine], the IC50 in assay [1] and in assay [2] was less than 100 nM each time.

Take `CN1CCN(C2CCN(c3ccc(Nc4ncc5ccc(-c6cccc(Cl)c6)n5n4)cc3)CC2)CC1` [Example 312, [7-(3-Chloro-phenyl)-pyrrolo[2,1-f][1,2,4]triazin-2-yl]-{4-[4-(4-methyl-piperazin-1-yl)-piperidin-1-yl]-phenyl}-amine]: the IC50 in assay [1] and in assay [2] was less than 100 nM in each case.

With `CN1CCN(C2CCN(c3ccc(Nc4ncc5ccc(-c6cccnc6)n5n4)cc3)CC2)CC1` [Example 313, {4-[4-(4-Methyl-piperazin-1-yl)-piperidin-1-yl]-phenyl}-(7-pyridin-3-yl-pyrrolo[2,1-f][1,2,4]triazin-2-yl)-amine], the values for the IC50 in assay [1] and in assay [2] were 100 to 1000 nM and less than 100 nM, respectively.

Consider `COc1ccc(Cl)cc1-c1ccc2cnc(Nc3ccc(C(=O)N4CCOCC4)cc3)nn12` [Example 315, {4-[7-(5-Chloro-2-methoxy-phenyl)-pyrrolo[2,1-f][1,2,4]triazin-2-ylamino]-phenyl}-morpholin-4-yl-methanone], for which the figures for the IC50 in assay [1] and in assay [2] were 100 to 1000 nM and less than 100 nM, respectively.

Regarding `O=C(c1ccc(Nc2ncc3ccc(-c4cccc(Cl)c4)n3n2)cc1)N1CCOCC1` [Example 316, {4-[7-(3-Chloro-phenyl)-pyrrolo[2,1-f][1,2,4]triazin-2-ylamino]-phenyl}-morpholin-4-yl-methanone], the values for the IC50 in assay [1] and in assay [2] were 100 to 1000 nM and less than 100 nM, respectively.

As to `O=C(c1ccc(Nc2ncc3ccc(-c4cccnc4)n3n2)cc1)N1CCOCC1` [Example 317, Morpholin-4-yl-[4-(7-pyridin-3-yl-pyrrolo[2,1-f][1,2,4]triazin-2-ylamino)-phenyl]-methanone], the IC50 in assay [1] is 1000 to 10000 nM; in assay [2], less than 100 nM.

For `COc1ccccc1-c1ccc2cnc(Nc3ccc(C(=O)N4CCN(C)CC4)cc3)nn12` [Example 318, {4-[7-(2-Methoxy-phenyl)-pyrrolo[2,1-f][1,2,4]triazin-2-ylamino]-phenyl}-(4-methyl-piperazin-1-yl)-methanone], the IC50 in assay [1] is 100 to 1000 nM; in assay [2] it was less than 100 nM.

Regarding `COc1ccc(Cl)cc1-c1ccc2cnc(Nc3ccc(C(=O)N4CCN(C)CC4)cc3)nn12` [Example 319, {4-[7-(5-Chloro-2-methoxy-phenyl)-pyrrolo[2,1-f][1,2,4]triazin-2-ylamino]-phenyl}-(4-methyl-piperazin-1-yl)-methanone], the IC50 in assay [1] is 100 to 1000 nM; in assay [2], less than 100 nM.

In the case of `CN1CCN(C(=O)c2ccc(Nc3ncc4ccc(-c5cccc(Cl)c5)n4n3)cc2)CC1` [Example 320, {4-[7-(3-Chloro-phenyl)-pyrrolo[2,1-f][1,2,4]triazin-2-ylamino]-phenyl}-(4-methyl-piperazin-1-yl)-methanone], the IC50 was 100 to 1000 nM in assay [1] and less than 100 nM in assay [2].

On to `CN1CCN(C(=O)c2ccc(Nc3ncc4ccc(-c5cccnc5)n4n3)cc2)CC1` [Example 321, (4-Methyl-piperazin-1-yl)-[4-(7-pyridin-3-yl-pyrrolo[2,1-f][1,2,4]triazin-2-ylamino)-phenyl]-methanone], for which the figures for the IC50 in assay [1] and in assay [2] were 100 to 1000 nM and less than 100 nM, respectively.

With `COc1ccc(Cl)cc1-c1ccc2cnc(-n3cnc4cnccc43)nn12` [Example 323, 1-[7-(5-Chloro-2-methoxy-phenyl)-pyrrolo[2,1-f][1,2,4]triazin-2-yl]-1H-imidazo[4,5-c]pyridine], the IC50 in assay [1] lay in the range of 1000 to 10000 nM; in assay [2] it was 100 to 1000 nM.

As to `Clc1cccc(-c2ccc3cnc(-n4cnc5cnccc54)nn23)c1` [Example 324, 1-[7-(3-Chloro-phenyl)-pyrrolo[2,1-f][1,2,4]triazin-2-yl]-1H-imidazo[4,5-c]pyridine], the IC50 in assay [1] and in assay [2] was 1000 to 10000 nM each time.

With `c1cncc(-c2ccc3cnc(-n4cnc5cnccc54)nn23)c1` [Example 325, 1-(7-Pyridin-3-yl-pyrrolo[2,1-f][1,2,4]triazin-2-yl)-1H-imidazo[4,5-c]pyridine], the IC50 in assay [1] and in assay [2] was 1000 to 10000 nM each time.

For `CC(=O)Nc1cc(Nc2ncc3ccc(-c4ccc(S(C)(=O)=O)cc4)n3n2)ccc1C(C)(C)C` [Example 326, N-{2-tert-Butyl-5-[7-(4-methanesulfonyl-phenyl)-pyrrolo[2,1-f][1,2,4]triazin-2-ylamino]-phenyl}-acetamide], the IC50 in assay [1] was more than 10000 nM; in assay [2], less than 100 nM.

For `COc1ccccc1-c1ccc2cnc(Nc3cccc(C(=O)N4CCOCC4)c3)nn12` [Example 327, {3-[7-(2-Methoxy-phenyl)-pyrrolo[2,1-f][1,2,4]triazin-2-ylamino]-phenyl}-morpholin-4-yl-methanone], the IC50 in assay [1] is 1000 to 10000 nM; in assay [2], less than 100 nM.

Turning to `COc1ccc(Cl)cc1-c1ccc2cnc(Nc3cccc(C(=O)N4CCOCC4)c3)nn12` [Example 328, {3-[7-(5-Chloro-2-methoxy-phenyl)-pyrrolo[2,1-f][1,2,4]triazin-2-ylamino]-phenyl}-morpholin-4-yl-methanone], the IC50 was 100 to 1000 nM in assay [1] and less than 100 nM in assay [2].

For the compound `O=C(c1cccc(Nc2ncc3ccc(-c4cccc(Cl)c4)n3n2)c1)N1CCOCC1` [Example 329, {3-[7-(3-Chloro-phenyl)-pyrrolo[2,1-f][1,2,4]triazin-2-ylamino]-phenyl}-morpholin-4-yl-methanone], the IC50 in assay [1] was 100 to 1000 nM; in assay [2], less than 100 nM.

Consider `CS(=O)(=O)c1ccc(-c2ccc3cnc(-n4cnc5cnccc54)nn23)cc1` [Example 330, 1-[7-(4-Methanesulfonyl-phenyl)-pyrrolo[2,1-f][1,2,4]triazin-2-yl]-1H-imidazo[4,5-c]pyridine], for which the IC50 in assay [1] and in assay [2] was 1000 to 10000 nM throughout.

`Oc1ccc(-c2ccc3cnc(Nc4ccc(N5CCOCC5)cc4)nn23)cn1` [Example 331, 5-[2-(4-Morpholin-4-yl-phenylamino)-pyrrolo[2,1-f][1,2,4]triazin-7-yl]-pyridin-2-ol]: the IC50 in assay [1] is 1000 to 10000 nM; in assay [2], less than 100 nM.

For `Oc1ccc(-c2ccc3cnc(Nc4cccc(N5CCOCC5)c4)nn23)cn1` [Example 332, 5-[2-(3-Morpholin-4-yl-phenylamino)-pyrrolo[2,1-f][1,2,4]triazin-7-yl]-pyridin-2-ol], the IC50 in assay [1] and in assay [2] was more than 10000 nM throughout.

These data come from patent publication US8471005B2 (Cephalon, Inc., priority 2008, dated 2013).
